Reference: patent US20150353982A1, “MICRO-EVOLUTION OF MICROBES” (priority 2012, published 2015)

What was measured:
[1] = system: Arthrospira platensis (CCMP1295); assay: Toxicology assay over 72 hours (BS EN ISO 10253:2006), reduction in specific growth rate; type: cell-based
Description: Toxicology assays and EC50 calculations for copper were performed on Arthrospira platensis (CCMP1295). Assessments were performed under aseptic conditions in 2 stages through an initial range-finding assay (data not shown) using CuSO4 solutions to detect the region of the EC50, followed by a final toxicology assay over 72 hours following British Standard BS EN ISO 10253:2006 [15] with ECso determination where inhibition is measured as a reduction in specific growth rate, relative to control cultures grown under identical conditions. Visual analysis was also performed to assess the effects of metal toxicity on morphology. Statistical analysis was performed using GraphPad Prism 5 Non-linear transform log(agonist) vs. response—variable response function.
FIGS. 4A and 4B show the results of the toxicity assay using A. platensis. EC50 of Cu^2+ ions for A. platensis was calculated at 0.2976 (in the 95% CI range of 0.17-0.5208 mg/L with an R squared value of 0.8654).

A. platensis = assay: Micro-evolution exposure (60 days) with fluctuation analysis; type: cell-based, Arthrospira platensis
Excerpt: The result from the fluctuation analysis after the selected period can explain the presence of resistant cells in two ways. Each result is interpreted as the independent consequence of two different phenomena of adaptation. In the first case, if resistant cells arose during the exposure to the selective agent (that is, by physiological adaptation), the variance in the number of cells per culture would be low because every cell is likely to have the same chance of developing resistance (set 1A; FIG. 3). Consequently, inter-culture (tube-to-tube) variation would be consistent with the Poisson model (that is, the variance of these replicate samples would be equal to the mean). By contrast, if resistant cells arose before the exposure to the selective agent (that is, genetic adaptation by rare spontaneous mutation occurring during the time in which the cultures grew from N0 to Nt), a high variation in the number of resistant cells per culture would be found (set 1B; FIG. 3). The tube-to-tube variation would not be consistent with the Poisson model (that is, variance>mean). Fluctuation analysis can likewise show the possibility of no adaptation if no resistant cells are observed after the incubation period in any of the experimental cultures. Since set 2 is the control of the experiment, variation is due only to random sampling and variation from tube to tube would be consistent with the Poisson model. […] If a similar variance: mean ratio between set 1 and set 2 is found, it confirms that resistant cells arose during the exposure to the selecting agent (that is, a post-selective mechanism).
FIG. 2 illustrates a typical outline of the micro-evolution process. The experiment was performed based on the method from Gonzalez et al., (2012). Following FIG. 2, the culture was cloned through the isolation of a single alga or cyanobacterium, to avoid the inclusion of previous spontaneous mutations, followed by growth. Cloning was performed through microdilution in microwell plates, where the culture was diluted to the culture density of 1 microbe (micro-organism, MO) per 200 μl, providing a single cell in each well (although if microalgae/cyanobacteria can grow on solid medium, isolation on medium agar can also be performed). Propagation of the cloned culture was performed from 200 μl in increasing volume flasks with foam stoppers in a constant temperature room 18° C.+/−1° C., average light intensity 2800 lux with 8:16 dark:light cycle.
10e2 MOs were then subcultured into 10 ml 40 vials (set 1), and cultures propagated further in vials and propagation flask (for set 2) (FIG. 3). Before exposure, controls ‘set 2’ were prepared through subculturing from flask into 20 vials. During the exposure stage, CuSO4 solution was added to the 60 vials of each concentration set to make-up the final concentrations of 0.3, 0.6, 1, 2 and 4 mg/Cu^2+ ions. Vials were stored under propagation conditions described above for a period of 60 days, with daily agitation, ensuring resistant cells could generate enough progeny to be detected. After the incubation period, fluctuation analysis was performed to identify those cultures which resistance arose through microevolution.

O=S(=O)([O-])[O-].[Cu+2] [Cu^2+ ions, CuSO4]
morphological changes (microscope) ([1]; 1 mg/L Cu2+, after 24 hour): fragmentation of the trichomes
EC50 ([1]; 72 hours, CuSO4 solutions, 95% CI 0.17-0.5208 mg/L, R squared 0.8654): 0.2976 mg/L
Outcome (A. platensis; 0.3 mg/L Cu^2+ ion concentration): RSM
Outcome (A. platensis; 0.6 mg/L Cu^2+ ion concentration): RSM
Outcome (A. platensis; 1 mg/L Cu^2+ ion concentration): No adaptation
Outcome (A. platensis; 2 mg/L Cu^2+ ion concentration): No adaptation
Outcome (A. platensis; 4 mg/L Cu^2+ ion concentration): No adaptation
